# Reference: patent US12016874B2, “Methods and compositions for treating carbapenem-resistant klebsiella pneumoniae infections” (City University of Hong Kong, priority 2022, dated 2024)
# Where two headings read alike, the source gives them in different places.
# Key:
# CR-HvKP 1 [1] = conditions: 20 μg/mL zidovudine
# P. aeruginosa = assay: Screening of FDA-approved drug library; format: cell-based; conditions: drug library screen
# 15WZ-88 = assay: MIC determination according to CLSI guidelines; format: cell-based, K. pneumoniae; conditions: Klebsiella pneumoniae, drug alone
# Method: (§1) Bacterial strains grown on MH agar plates were resuspended in sterilized 0.85% sodium chloride solution. […] All tested culture media were finally cultured at 37° C. for 16 hours. E. coli ATCC25922 and K. pneumoniae MGH78578 in Table 1 were used as reference control bacteria.
# (§2) See Table 2 and Table 2-1 below for details.
# 14WZ-51 = assay: MIC determination according to CLSI guidelines; format: cell-based, K. pneumoniae; conditions: Klebsiella pneumoniae, drug alone
# Method: as §1, §2
# 16ZR-58 = assay: MIC determination according to CLSI guidelines; format: cell-based, K. pneumoniae; conditions: Klebsiella pneumoniae, drug alone
# Method: as §1, §2
# 14WZ-52 = assay: MIC determination according to CLSI guidelines; format: cell-based, K. pneumoniae; conditions: Klebsiella pneumoniae, drug alone
# Method: as §1, §2
# 14WZ-44 = assay: MIC determination according to CLSI guidelines; format: cell-based, K. pneumoniae; conditions: Klebsiella pneumoniae; 14WZ-44 (CRKP); drug alone
# Method: as §1, §2
# CR-HvKP 3 = assay: MIC determination according to CLSI guidelines; format: cell-based, K. pneumoniae; conditions: Klebsiella pneumoniae, drug alone
# Method: as §1, §2
# 14WZ-43 = assay: MIC determination according to CLSI guidelines; format: cell-based, K. pneumoniae; conditions: Klebsiella pneumoniae, drug alone
# Method: as §1, §2
# 15WZ-68 = assay: MIC determination according to CLSI guidelines; format: cell-based, K. pneumoniae; conditions: Klebsiella pneumoniae, drug alone
# Method: as §1, §2
# 17ZR-63 = assay: MIC determination according to CLSI guidelines; format: cell-based, K. pneumoniae; conditions: Klebsiella pneumoniae, drug alone
# Method: as §1, §2
# 16WZ-134 = assay: MIC determination according to CLSI guidelines; format: cell-based, K. pneumoniae; conditions: Klebsiella pneumoniae, drug alone
# Method: as §1, §2
# 16ZR-10 = assay: MIC determination according to CLSI guidelines; format: cell-based, K. pneumoniae; conditions: Klebsiella pneumoniae, drug alone
# Method: as §1, §2
# 14WZ-45 = assay: MIC determination according to CLSI guidelines; format: cell-based, K. pneumoniae; conditions: Klebsiella pneumoniae, drug alone
# Method: as §1, §2
# 17ZR-75 = assay: MIC determination according to CLSI guidelines; format: cell-based, K. pneumoniae; conditions: Klebsiella pneumoniae, drug alone
# Method: as §1, §2
# 16ZR-93 = assay: MIC determination according to CLSI guidelines; format: cell-based, K. pneumoniae; conditions: Klebsiella pneumoniae, drug alone
# Method: as §1, §2
# 17ZR-31 = assay: MIC determination according to CLSI guidelines; format: cell-based, K. pneumoniae; conditions: Klebsiella pneumoniae, drug alone
# Method: as §1, §2
# CR-HvKP 1 [2] = assay: MIC determination according to CLSI guidelines; format: cell-based, K. pneumoniae; conditions: Klebsiella pneumoniae, drug alone
# Method: as §1, §2
# CR-HvKP 2 = assay: MIC determination according to CLSI guidelines; format: cell-based, K. pneumoniae; conditions: Klebsiella pneumoniae, drug alone
# Method: as §1, §2
# 16ZR-33 = assay: MIC determination according to CLSI guidelines; format: cell-based, K. pneumoniae; conditions: Klebsiella pneumoniae, drug alone
# Method: as §1, §2
# 17ZR-61 = assay: MIC determination according to CLSI guidelines; format: cell-based, K. pneumoniae; conditions: Klebsiella pneumoniae, drug alone
# Method: as §1, §2
# CR-HvKP 5 = assay: MIC determination according to CLSI guidelines; format: cell-based, K. pneumoniae; conditions: Klebsiella pneumoniae, drug alone
# Method: as §1, §2
# E. coli ATCC25922 = assay: MIC determination according to CLSI guidelines; format: cell-based; conditions: Escherichia coli, drug alone
# Method: as §1, §2
# K. pneumoniae MGH78578 = assay: MIC determination according to CLSI guidelines; format: cell-based; conditions: Klebsiella pneumoniae, drug alone
# Method: as §1, §2
# [3] = molecular target: T1, K. pneumoniae RNA polymerase (Klebsiella pneumoniae subsp. pneumoniae, UniProt A6TGP0+A6TGP1); assay: ITC assay; format: binding; conditions: 25° C.
# T1 construct: made in house; host or cells: E. coli BL21(DE3)
# Description: We successfully co-expressed the subunits of K. pneumoniae RNAp to prepare the required core enzyme by a dual plasmids expression system, pACYC-Duet and pET-Duet. The method is briefly described as follows:
# Recombinant plasmids containing different subunits of RNAP (rpoA, rpoB, rpoC, rpoD, rpoZ) were constructed using the Gibson assembly method. First, all the required fragments were obtained by PCR amplification from the K. pneumoniae MGH78578 genome and two Duet plasmids, respectively. All fragments, Gibson Assembly Master Mix (NEB, #E2611S) and deionized water were then mixed and incubated at 50° C. for 60 minutes. The recombinant plasmids were transformed into E. coli DH5α by heat shock method. After verification via sequencing, the recombinant plasmids were then transformed into E. coli BL21(DE3). Plasmids pACYC Duet rpoA-rpoZ-Amp (encoding […]) and pET Duet rpoB-rpoC-Kana (encoding β and β′ subunits) were transformed together into E. coli BL21 to prepare RNA core polymerase by in vivo assembly. The σ factor σ subunit was obtained by overexpression of E. coli BL21 containing the plasmid pET-Duet-rpoD-Kana alone. The recombinant bacteria were first cultured in LB agar containing 50 μg/mL of kanamycin and 100 μg/mL of ampicillin and then inoculated into LB broth containing the same concentration of antibiotics at 37° C., 250 rpm. After the bacterial turbidity reached an OD600 of 0.6, 0.5 mM IPTG was added and cultured at 16° C., 200 rpm for 16 hours. Cells were harvested by centrifugation (5000 rpm, 20 minutes at 4° C.). The protein was then purified by affinity chromatography. To further obtain bacterial RNAp holoenzyme, RNAp core enzyme was incubated with sigma subunits at a molar ratio of 1:1 at 37° C. for 15 minutes and then used for subsequent ITC assays.
# The test was performed at 25° C. using a Malvern MicroCal PEAQ-ITC automatic ultrasensitive isothermal titration calorimeter (MicroCal (Malvern Instruments), Malvern, UK). […] The solution was stirred at 750 rpm. MicroCal PEAQ-ITC analysis software was used to fit the data to a one site binding model.
# CR-HvKP 1 [4] = conditions: for Viability (%): CR-HvKP 1 infected ICR mice; for mortality rate of mice: oral gavage every 12 hours
# Method: The ICR mice were injected with 3×10^7 CFU of CR-HvKP 1 intraperitoneally to create sepsis infection models.
# rmpA2 = assay: Virulence gene expression by qRT-PCR; format: cell-based, K. pneumoniae; conditions: drug alone
# CR-HvKP 1 [5] = assay: Mucoviscosity assay; format: cell-based, K. pneumoniae; conditions: drug alone, OD600 of supernatant
# Method: 2. Mucoviscosity assay: The overnight culture of CR-HvKP 1 was re-inoculated into fresh LB broth to produce a bacterial broth with an OD600 of 0.3. Different drugs were then added and cultured with shaking at 37° C. for 6 hours. The culture was then diluted to an OD600 of 1.0 and centrifuged at 1,000×g for 2 minutes before the supernatant was obtained for OD600 measurement.
# E. coli = assay: Screening of FDA-approved drug library; format: cell-based; conditions: drug library screen
# HepG2 cells = assay: MTT experiment; conditions: MTT assay
# CR-HvKP 1 [6] = assay: microbe, parasite or virus in culture; format: cell-based, K. pneumoniae; conditions: Klebsiella pneumoniae, read-out: MIC after serial passage with incremental drug concentrations
# Method: The principle of this experiment is that sub-inhibitory concentrations of antibiotics will induce drug-resistant mutations of bacteria.
# Materials and methods: CR-HvKP 1 was selected as the representative strain. […] After 24 hours of culture, the culture possibly containing drug-resistant mutant bacteria was diluted 1:100 into fresh LB medium containing 2-fold concentration of drugs. This continuous transfer was repeated for six generations, i.e. the experiment was conducted for six days (the concentration on the second day was twice that on the first day, with daily increment).
# K. pneumoniae = assay: Screening of FDA-approved drug library; format: cell-based; conditions: drug library screen
# CR-HvKP 1 [7] = assay: String test on sheep blood agar; format: cell-based, K. pneumoniae; conditions: drug alone
# Method: 1. A series of tests were performed according to the following process. CR-HvKP 1 was inoculated onto the agar plate containing 5% sheep blood and different drugs and cultured overnight at 37° C. The series test refers to a test in which viscous strings greater than 5 mm in length are formed when a single colony is stretched with a standard bacteriological inoculating loop, which can be considered a virulent strain of a high-viscosity phenotype.
# Method for red blood cells (RBCs): In-vitro method: Hemolysis experiment: The blood from fresh ICR mice was collected by cardiac blood withdrawal, preserved in K2-EDTA tubes (BD Vacultainer® K2 EDTA, Becton-Dickinson) and temporarily stored at 4° C. The whole blood sample was centrifuged (500 g, 10 minutes) to remove plasma, and then washed three times with PBS buffer. After the last washing, 100 μL of the remaining red blood cells (RBCs) were carefully aspirated from the bottom and diluted with 4.9 mL PBS buffer to prepare a 2% blood solution. […] 50 μL of diluted RBCs were mixed with 100 μL of milli-Q H20 (100% hemolysis) or 100 μL of drug-free PBS as positive and negative controls, respectively. It should be noted that rifampicin itself was red, so the absorbance of PBS with different concentrations of the drug was used as background correction in the calculation. The mixture was mixed gently and incubated at 37° C. for 30 minutes. 80 μL of supernatant was obtained by centrifugation at 2000×g for 6 minutes, and the optical density of the supernatant at 541 nm was measured with a microplate reader (SpectraMax 190, Moleclar Devices).
# T1 sequence (A6TGP1 whole entry): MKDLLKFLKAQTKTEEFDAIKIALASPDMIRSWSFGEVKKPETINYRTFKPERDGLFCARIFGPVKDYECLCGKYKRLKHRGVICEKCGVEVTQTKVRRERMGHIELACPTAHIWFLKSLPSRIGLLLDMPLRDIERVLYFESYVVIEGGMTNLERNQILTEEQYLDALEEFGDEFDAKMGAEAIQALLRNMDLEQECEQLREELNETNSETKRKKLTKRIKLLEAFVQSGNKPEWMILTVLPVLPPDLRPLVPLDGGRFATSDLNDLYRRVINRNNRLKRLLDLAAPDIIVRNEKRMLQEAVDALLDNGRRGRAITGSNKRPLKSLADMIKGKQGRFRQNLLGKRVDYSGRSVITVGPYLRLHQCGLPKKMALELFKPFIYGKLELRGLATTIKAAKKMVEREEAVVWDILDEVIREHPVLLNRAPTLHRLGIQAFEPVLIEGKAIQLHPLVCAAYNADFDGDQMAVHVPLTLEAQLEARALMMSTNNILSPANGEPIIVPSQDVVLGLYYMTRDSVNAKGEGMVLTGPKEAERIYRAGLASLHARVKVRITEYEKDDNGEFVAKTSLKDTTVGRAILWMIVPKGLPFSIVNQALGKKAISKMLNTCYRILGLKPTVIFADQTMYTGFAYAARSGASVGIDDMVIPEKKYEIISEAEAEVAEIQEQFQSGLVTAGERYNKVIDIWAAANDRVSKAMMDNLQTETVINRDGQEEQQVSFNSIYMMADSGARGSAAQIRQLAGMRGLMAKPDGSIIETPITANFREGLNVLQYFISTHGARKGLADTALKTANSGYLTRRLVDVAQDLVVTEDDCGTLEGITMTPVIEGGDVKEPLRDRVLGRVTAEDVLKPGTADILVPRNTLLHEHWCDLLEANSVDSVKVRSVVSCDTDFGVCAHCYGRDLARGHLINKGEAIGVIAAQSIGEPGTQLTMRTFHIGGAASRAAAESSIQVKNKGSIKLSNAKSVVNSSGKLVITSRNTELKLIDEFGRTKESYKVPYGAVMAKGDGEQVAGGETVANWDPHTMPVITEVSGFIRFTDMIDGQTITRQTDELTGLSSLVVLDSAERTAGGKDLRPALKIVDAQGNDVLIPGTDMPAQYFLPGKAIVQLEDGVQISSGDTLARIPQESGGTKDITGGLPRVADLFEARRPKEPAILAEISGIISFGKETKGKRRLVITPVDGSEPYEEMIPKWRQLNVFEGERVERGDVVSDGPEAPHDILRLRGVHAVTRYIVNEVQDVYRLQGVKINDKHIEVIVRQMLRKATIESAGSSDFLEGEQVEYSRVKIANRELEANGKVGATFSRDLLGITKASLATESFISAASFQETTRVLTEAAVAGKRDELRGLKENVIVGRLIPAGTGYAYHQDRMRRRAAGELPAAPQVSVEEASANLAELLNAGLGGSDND
# T1 sequence (A6TGP0 whole entry): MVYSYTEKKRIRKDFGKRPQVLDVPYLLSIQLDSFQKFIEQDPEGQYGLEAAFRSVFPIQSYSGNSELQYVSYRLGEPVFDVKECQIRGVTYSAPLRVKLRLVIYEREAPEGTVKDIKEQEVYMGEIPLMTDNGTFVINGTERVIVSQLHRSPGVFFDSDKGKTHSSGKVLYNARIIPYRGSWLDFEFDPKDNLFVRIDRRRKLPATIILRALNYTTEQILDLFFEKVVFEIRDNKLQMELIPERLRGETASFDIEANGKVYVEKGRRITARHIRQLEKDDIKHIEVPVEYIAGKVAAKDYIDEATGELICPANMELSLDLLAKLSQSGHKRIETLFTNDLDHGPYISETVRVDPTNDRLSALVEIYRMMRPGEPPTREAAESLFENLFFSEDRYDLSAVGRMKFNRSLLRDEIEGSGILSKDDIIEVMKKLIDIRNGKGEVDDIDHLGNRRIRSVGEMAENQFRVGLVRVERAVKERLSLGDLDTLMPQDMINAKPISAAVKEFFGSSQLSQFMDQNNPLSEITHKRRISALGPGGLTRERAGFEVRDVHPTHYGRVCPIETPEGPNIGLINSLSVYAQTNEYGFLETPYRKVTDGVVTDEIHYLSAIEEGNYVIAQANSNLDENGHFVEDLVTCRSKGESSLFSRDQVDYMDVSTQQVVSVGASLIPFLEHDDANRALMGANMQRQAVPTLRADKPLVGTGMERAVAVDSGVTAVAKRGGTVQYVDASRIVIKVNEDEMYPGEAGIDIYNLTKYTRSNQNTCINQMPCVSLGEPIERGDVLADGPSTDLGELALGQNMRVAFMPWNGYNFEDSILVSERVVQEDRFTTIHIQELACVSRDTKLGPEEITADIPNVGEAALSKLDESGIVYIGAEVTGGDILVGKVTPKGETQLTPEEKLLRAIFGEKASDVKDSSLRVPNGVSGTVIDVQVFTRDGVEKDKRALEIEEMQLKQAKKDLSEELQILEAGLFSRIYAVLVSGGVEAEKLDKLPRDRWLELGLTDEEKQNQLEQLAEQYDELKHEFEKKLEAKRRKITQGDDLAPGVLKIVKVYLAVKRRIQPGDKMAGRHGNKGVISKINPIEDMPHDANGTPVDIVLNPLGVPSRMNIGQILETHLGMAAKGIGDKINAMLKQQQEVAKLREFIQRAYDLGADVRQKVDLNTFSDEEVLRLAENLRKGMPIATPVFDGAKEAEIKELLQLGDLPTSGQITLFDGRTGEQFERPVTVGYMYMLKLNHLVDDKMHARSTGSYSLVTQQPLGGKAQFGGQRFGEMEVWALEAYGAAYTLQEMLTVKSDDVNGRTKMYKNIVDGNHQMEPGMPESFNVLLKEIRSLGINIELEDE
# T1 sequence (A6TEU8 whole entry, further chain): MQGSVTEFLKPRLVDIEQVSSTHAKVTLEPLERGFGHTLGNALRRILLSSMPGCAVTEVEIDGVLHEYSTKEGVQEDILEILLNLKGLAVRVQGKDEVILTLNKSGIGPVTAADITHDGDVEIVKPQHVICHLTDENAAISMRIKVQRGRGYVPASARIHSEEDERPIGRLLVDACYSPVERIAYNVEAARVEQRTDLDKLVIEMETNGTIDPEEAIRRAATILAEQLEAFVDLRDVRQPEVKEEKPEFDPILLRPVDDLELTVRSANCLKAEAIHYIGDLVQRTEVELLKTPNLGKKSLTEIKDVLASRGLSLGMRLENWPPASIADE
Structure (SMILES),MIC (15WZ-88) [µg/mL],MIC (14WZ-51) [µg/mL],MIC (16ZR-58) [µg/mL],MIC (14WZ-52) [µg/mL],MIC (14WZ-44) [µg/mL],MIC (CR-HvKP 3) [µg/mL],MIC (14WZ-43) [µg/mL],MIC (15WZ-68) [µg/mL],MIC (17ZR-63) [µg/mL],MIC (16WZ-134) [µg/mL],MIC (16ZR-10) [µg/mL],MIC (14WZ-45) [µg/mL],MIC (17ZR-75) [µg/mL],MIC (16ZR-93) [µg/mL],MIC (17ZR-31) [µg/mL],MIC (CR-HvKP 1 [2]) [µg/mL],MIC (CR-HvKP 2) [µg/mL],MIC (16ZR-33) [µg/mL],MIC (17ZR-61) [µg/mL],MIC (CR-HvKP 5) [µg/mL],also measured
Cc1cn([C@H]2C[C@H](N=[N+]=[N-])[C@@H](CO)O2)c(=O)[nH]c1=O [zidovudine],2.5,2.5,2.5,1.25,2.5,2.5,2.5,2.5,1.25,> 20,0.625,2.5,5,> 20,2.5,2.5,2.5,5,1.25,5,"population size of CR-HvKP 1 in time-kill curve (CR-HvKP 1 [1]): reduced in the first 4 hours and then re-grew to reach the same size as no treatment control at 24 hours; antibacterial effect (P. aeruginosa): exhibited antibacterial effect; MIC (E. coli ATCC25922): 0.625 µg/mL; MIC (K. pneumoniae MGH78578): 5 µg/mL; enthalpy (ΔH) [3]: -80.1 ± 124 kcal/mol; reaction stoichiometry (N sites) [3]: 0.239±0.273; Kd ([3]; one site binding model): 7.8 µM; Viability (%) (CR-HvKP 1 [4]; ZDV 10 mg/kg + RIF 0 mg/kg): 0%; mortality rate of mice (CR-HvKP 1 [4]; zidovudine 10 mg/kg only, in 36 hours): 100%; expression of bacterial virulence factor rmpA2 (rmpA2): inhibition; hypermucoviscosity (CR-HvKP 1 [5]): reduce; antibacterial effect (E. coli): exhibited antibacterial effect; HepG2 cell lysis (HepG2 cells): low level; MIC (CR-HvKP 1 [6]): 1280 µg/mL; antibacterial effect (K. pneumoniae): exhibited antibacterial effect; string length (CR-HvKP 1 [7]): reduce"
CO[C@H]1/C=C/O[C@@]2(C)Oc3c(C)c(O)c4c(O)c(c(/C=N/N5CCN(C)CC5)c(O)c4c3C2=O)NC(=O)/C(C)=C\C=C\[C@H](C)[C@H](O)[C@@H](C)[C@@H](O)[C@@H](C)[C@H](OC(C)=O)[C@@H]1C [rifampicin],16,32,32,32,32,32,32,32,32,32,32,16,64,> 64,32,32,32,16,32,32,"MIC (E. coli ATCC25922): 8 µg/mL; MIC (K. pneumoniae MGH78578): 32 µg/mL; Viability (%) (CR-HvKP 1 [4]; ZDV 0 mg/kg + RIF 8 mg/kg): 30%; mortality rate of mice (CR-HvKP 1 [4]; rifampicin 8 mg/kg only, in 72 hours): 66%; hemolysis (red blood cells (RBCs)): low level; HepG2 cell lysis (HepG2 cells): low level; MIC (CR-HvKP 1 [6]): 4100 µg/mL"
